# Target: T1, Drak2 (Homo sapiens, UniProt O94768)
# T1 sequence (O94768 1-372): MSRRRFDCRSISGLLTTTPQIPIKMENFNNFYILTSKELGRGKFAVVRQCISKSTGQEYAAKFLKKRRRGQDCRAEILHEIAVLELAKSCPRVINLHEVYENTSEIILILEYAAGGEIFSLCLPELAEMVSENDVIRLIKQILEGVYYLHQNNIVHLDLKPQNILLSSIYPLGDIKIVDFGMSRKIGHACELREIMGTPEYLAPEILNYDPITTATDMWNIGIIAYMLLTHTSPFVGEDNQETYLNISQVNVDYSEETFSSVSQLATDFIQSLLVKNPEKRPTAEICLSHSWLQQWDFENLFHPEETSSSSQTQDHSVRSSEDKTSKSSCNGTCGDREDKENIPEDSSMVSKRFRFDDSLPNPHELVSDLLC
# Test: Drak2 activity test, ADP-Glo kinase assay (Promega)
# Format: biochemical
# Settings: inhibition of Drak2 kinase activity, 2 h room temperature, activity range classes, read-out: IC50_Drak2
row,SMILES,IC50 [nM]
1,"COc1ccc(-c2cncc(-c3cc(NC(=O)C4CCC4)cs3)n2)cc1Cl [Example A17, N-(5-(6-(3-chloro-4-methoxyphenyl)pyrazin-2-yl)thiophen-3-yl)cyclobutanecarboxamide]",101 to 1000
2,"CCCCC(=O)Nc1csc(-c2cncc(-c3cc(OC)cc(OC)c3)n2)c1 [Example A18, N-(5-(6-(3,5-dimethoxyphenyl)pyrazin-2-yl)thiophen-3-yl)pentanamide]",101 to 1000
3,"CCCCC(=O)Nc1csc(-c2cncc(-c3ccc(OC)c(Cl)c3)n2)c1 [Example A19, N-(5-(6-(3-chloro-4-methoxyphenyl)pyrazin-2-yl)thiophen-3-yl)pentanamide]",101 to 1000
4,"CCCCC(=O)Nc1csc(-c2cncc(-c3ccc(C#N)c(OC)c3)n2)c1 [Example A20, N-(5-(6-(4-cyano-3-methoxyphenyl)pyrazin-2-yl)thiophen-3-yl)pentanamide]",101 to 1000
5,"CCCCC(=O)Nc1csc(-c2cncc(-c3ccc4c(c3)OCO4)n2)c1 [Example A23, N-(5-(6-(benzo[d][1,3]dioxol-5-yl)pyrazin-2-yl)thiophen-3-yl)pentanamide]",101 to 1000
6,"COc1cc(C(N)=O)c(-c2cncc(-c3cc(NC(=O)C4CCC4)cs3)n2)cc1OC [Example A25, 2-(6-(4-(cyclobutanecarboxamido)thiophen-2-yl)pyrazin-2-yl)-4,5-dimethoxybenzamide]",> 10000
7,"CCCCC(=O)Nc1csc(-c2cncc(-c3ccc(F)c(F)c3)n2)c1 [Example A27, N-(5-(6-(3,4-difluorophenyl)pyrazin-2-yl)thiophen-3-yl)pentanamide]",1000 to 10000
8,"O=C(Nc1csc(-c2cncc(-c3ccc(F)c(F)c3)n2)c1)C1CCC1 [Example A28, N-(5-(6-(3,4-difluorophenyl)pyrazin-2-yl)thiophen-3-yl)cyclobutanecarboxamide]",1000 to 10000
9,"COc1ccc(-c2cncc(-c3cc(NC(=O)CC4CC4)cs3)n2)cc1OC [Example A31, 2-cyclopropyl-N-(5-(6-(3,4-dimethoxyphenyl)pyrazin-2-yl)thiophen-3-yl)acetamide]",11 to 100
10,"COc1ccc(-c2cncc(-c3cc(NC(=O)CC4CCC4)cs3)n2)cc1OC [Example A32, 2-cyclobutyl-N-(5-(6-(3,4-dimethoxyphenyl)pyrazin-2-yl)thiophen-3-yl)acetamide]",11 to 100

# More lines, now with the values ahead:
row,IC50 [nM],SMILES
1,1000 to 10000,"CCCCC(=O)Nc1csc(-c2cncc(-c3ccc(Cl)c(OC)c3)n2)c1 [Example A16, N-(5-(6-(4-chloro-3-methoxyphenyl)pyrazin-2-yl)thiophen-3-yl)pentanamide]"
2,101 to 1000,"CCCCC(=O)Nc1csc(-c2cncc(-c3ccc(OC)c(C#N)c3)n2)c1 [Example A21, N-(5-(6-(3-cyano-4-methoxyphenyl)pyrazin-2-yl)thiophen-3-yl)pentanamide]"
3,101 to 1000,"COc1ccc(-c2cncc(-c3cc(NC(=O)C4CCC4)cs3)n2)cc1C#N [Example A22, N-(5-(6-(3-cyano-4-methoxyphenyl)pyrazin-2-yl)thiophen-3-yl)cyclobutanecarboxamide]"
4,1000 to 10000,"O=C(Nc1csc(-c2cncc(-c3ccc4c(c3)OCO4)n2)c1)C1CCC1 [Example A24, N-(5-(6-(benzo[d][1,3]dioxol-5-yl)pyrazin-2-yl)thiophen-3-yl)cyclobutanecarboxamide]"
5,1000 to 10000,"CCCCC(=O)Nc1csc(-c2cncc(-c3cc(OC)c(OC)cc3C(N)=O)n2)c1 [Example A26, 4,5-dimethoxy-2-(6-(4-pentanamidothiophen-2-yl)pyrazin-2-yl)benzamide]"
6,101 to 1000,"CCCCCC(=O)Nc1csc(-c2cncc(-c3ccc(OC)c(OC)c3)n2)c1 [Example A29, N-(5-(6-(3,4-dimethoxyphenyl)pyrazin-2-yl)thiophen-3-yl)hexanamide]"
7,> 10000,"CCCCCCC(=O)Nc1csc(-c2cncc(-c3ccc(OC)c(OC)c3)n2)c1 [Example A30, N-(5-(6-(3,4-dimethoxyphenyl)pyrazin-2-yl)thiophen-3-yl)heptanamide]"

# Reference: US20240308992A1 (Biopolar Youtang(Guangdong) Pharmaceutical Co., Ltd., priority 2021, published 2024)
